In article PMC6062912, “The Evolutionary Conserved γ-Core Motif Influences the Anti-Candida Activity of the Penicillium chrysogenum Antifungal Protein PAF” (Frontiers in Microbiology, 2018):
Where two headings read alike, the source gives them in different places. Residues, ends and D or L forms follow the SMILES beside them.

Legend:
Type in all cases: cell-based, Candida albicans
[1] = tested on: C. albicans; experiment: ROS production, DCFH-DA fluorometric assay; conditions: for ROS signal higher compared to Pγ: 60 min
Procedure: For the detection of ROS generation in C. albicans a dichloro-dihydro-fluorescein diacetate (DCFH-DA, Sigma-Aldrich)-based fluorometric assay was applied, adapted from [Han et al. (2016)]. Cells from an overnight culture of C. albicans, grown on YPD agar, were suspended in 0.05× PDB (Sigma-Aldrich) and the cell number was adjusted to 10^7 cells mL^-1. DCFH-DA stock solution (100 mM in DMSO) was added to the cell suspension to give a final concentration of 100 μM. This cell suspension was pre-incubated for 30 min at 30°C protected from light. Serial dilutions of the test compounds were prepared in 0.05× PDB (Sigma-Aldrich) in 96-well microtiter plates (Nunclon Delta, Thermo Fisher Scientific) in a volume of 100 μL per well. H2O2 served as a positive control for ROS induction. After pre-incubation, the DCFH-DA loaded cells were added to the test compounds (100 μL per well) to give a final volume of 200 μL in each well and the 96-well plate was placed in a multi-mode microplate reader (FLUOstar Omega, BMG Labtech), set to 30°C incubation temperature. The fluorescence signal was recorded every 5 min over a time course of 4 h at excitation and emission wavelengths of 485 and 520 nm, respectively. Measurements were prepared in duplicates and assays were performed at least three times.
Since ROS production is an early marker for programmed cell death, we were also interested whether the investigated AMPs induce ROS in C. albicans. Therefore, C. albicans cells were loaded with DCFH-DA, which is converted intracellularly to the highly fluorescent DCF when oxidized in the presence of ROS ([Chen et al., 2010]). During exposure of the cells to 0–20 μM AMPs the DCF signal intensities were recorded in RFU every 5 min over a time-course of 4 h. The background RFU of 6,757 ± 117 was detected in C. albicans cells that were not exposed to AMPs, but loaded with DCFH-DA, diluted in 0.05× PDB (0.1% DMSO final concentration). The RFU value remained constant over the time of measurement. For all AMPs, we detected a time- and dose-dependent increase of ROS (Supplementary Figure S9) and ROS production was prevented by the addition of 1 mM of the antioxidant ascorbic acid to the highest concentration (20 μM) of each AMP (Supplementary Figure S10).

[2] = tested on: C. albicans; experiment: Cell size reduction (FSC) by flow cytometry; conditions: 2× MIC, mean ± SD
Procedure: (§1) To analyze changes in cell size and to assess kinetics of cell death of C. albicans upon antifungal treatment flow cytometry was applied. For both experiments, 10^4 cells mL^-1 was incubated in 0.05× PDB with the desired AMP concentration for different time points. The incubation was performed in 1.5 mL reaction tubes at 30°C under continuous shaking at 800 rpm in a Thermomixer Comfort (Eppendorf). After incubation, the cells were centrifuged at 4°C with 3,000 ×g for 3 min. For cell size determination, the supernatant was removed and the cells were resuspended and fixed in PBS containing 3.7% (v/v) formaldehyde before changes in cell size were measured by plotting SSC against FSC. C. albicans that were incubated at 95°C for 120 min served as controls. Microscopic control-images were taken with a fluorescence microscope (Axioplan, Zeiss), equipped with a camera (Axiocam 503 mono, Zeiss) and excitation/emission filters (365/420 nm for blue fluorescence and 546/590 or 565/620 nm for red fluorescence, Zeiss). Image acquisition was performed with ZEN 2 microscope software (Zeiss, blue edition) and the cell area was measured with ImageJ 1.52d software ([Schindelin et al., 2012]).
Cell shrinkage of C. albicans is a sign for cell death when exposed to AMPs ([Lee et al., 2017]). We therefore analyzed the changes in size of AMP-treated C. albicans cells by recording the FSC with flow cytometry. To this end, C. albicans cells were analyzed after 10 and 30 min of exposure to 1× MIC and 2× MIC of AMPs (Figure 5). Heat-killed and untreated C. albicans cells served as positive and negative controls, respectively (Supplementary Figure S8). […] Pγ^var and Pγ^opt caused a very prominent decrease in the FSC value compared to the untreated cell population when applied at 2× MIC. Pγ^var and Pγ^opt reduced the average cell size after a 10-min treatment by 28 ± 13 (P = 0.022) and 18 ± 10% (P = 0.041), respectively, and after 30 min the cell size was reduced by 48 ± 8 (P < 0.001) and 37 ± 12% (P = 0.007), respectively.

[3] = tested on: C. albicans; conditions: 10 min exposure, mean ± SD, untreated control 1.8 ± 1.2%
Procedure: as §1
For dead-cell staining, prior to fixation, the cells were incubated in the dark for 30 min at 4°C with 100 μL PBS containing 0.1 μL LIVE/DEAD^TM Fixable Far Red Dead Cell Stain (Thermo Fisher Scientific). The cells were then washed once in PBS and fixed in PBS containing 3.7% formaldehyde. Ethanol-inactivated dead C. albicans served as a positive staining control. The samples were then analyzed by FACS (FACSVerse Flow Cytometer, BD Biosciences), equipped with BD FACSuite software (v1.0.6.5230, BD Biosciences). Dead cells were detected at Excitation/Emission wavelength of 650/665 nm. Stained, live, and dead Candida cells were used as controls to discriminate populations and to set the gates.
To elucidate the AMPs candidacidal activities at an early stage and to compare their time and dose-dependent cell killing in more detail, fluorescence activated cell sorting (FACS) analysis with dead-cell staining was applied. To this end, C. albicans was exposed to 1× and 2× MIC of the respective AMPs for 10 min, stained with the dead-cell marker, and fixed with formaldehyde. With FACS analyses, 1.8 ± 1.2% dead cells were detected in the untreated control (Figure 3).

Structure (SMILES) | ROS signal above the background ([1]; 1.3 μM, 4 h) | fluorescence signal above the background (ROS) ([1]; 20 μM, 30 min) | ROS signal higher compared to Pγ ([1]; 20 μM) | ROS signal above the level induced by Pγ ([1]; 20 μM, 4 h) | cell size reduction (change in FSC vs untreated cells) ([2]; 10 min) | cell size reduction (change in FSC vs untreated cells) ([2]; 30 min) | dead cells (cells killed), FACS dead-cell staining ([3]; 1× MIC) | dead cells (cells killed), FACS dead-cell staining ([3]; 2× MIC)
CC(=O)N[C@@H](CCCCN)C(=O)N[C@@H](Cc1ccc(O)cc1)C(=O)N[C@H](C(=O)NCC(=O)N[C@@H](CCCCN)C(=O)N[C@@H](CS)C(=O)N[C@@H](CCCCN)C(=O)N[C@H](C(=O)N[C@@H](CCCCN)C(=O)N[C@@H](CCCCN)C(=O)N[C@@H](CC(N)=O)C(=O)N[C@@H](CCCCN)C(=O)N[C@@H](CS)C(=O)N[C@@H](CCCCN)C(N)=O)[C@@H](C)O)[C@@H](C)O [Pγ^opt] (Ac-KYTGKCKTKKNKCK-NH2) | 36% | 31% | +85% | 446% | 18 ± 10% | 37 ± 12% | 11.7 ± 0.3% | 27.4 ± 1.3%
CC(=O)N[C@@H](CCCCN)C(=O)N[C@@H](Cc1ccc(O)cc1)C(=O)N[C@H](C(=O)NCC(=O)N[C@@H](CCCCN)C(=O)N[C@@H](CS)C(=O)N[C@@H](Cc1ccc(O)cc1)C(=O)N[C@@H](CCCCN)C(=O)N[C@@H](CCCCN)C(=O)N[C@@H](CCCCN)C(=O)N[C@@H](CC(N)=O)C(=O)N[C@@H](CCC(=O)O)C(=O)N[C@@H](CS)C(=O)N[C@@H](CCCCN)C(N)=O)[C@@H](C)O [Pγ^var] (Ac-KYTGKCYKKKNECK-NH2) |  |  | +50% | 146% | 28 ± 13% | 48 ± 8% | 13.2 ± 3.2% | 27.1 ± 5.6%
